Active and inactive are the calls of the source.
Key:
[1] = target: T1, Ubiquitin-conjugating enzyme E2 N (Homo sapiens, UniProt P61088); assay type: functional;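 further: Dose-response confirmation in a TR-FRET assay detecting UBC13-driven polyubiquitin chain formation, inhibition measured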
T1 sequence (P61088 whole entry): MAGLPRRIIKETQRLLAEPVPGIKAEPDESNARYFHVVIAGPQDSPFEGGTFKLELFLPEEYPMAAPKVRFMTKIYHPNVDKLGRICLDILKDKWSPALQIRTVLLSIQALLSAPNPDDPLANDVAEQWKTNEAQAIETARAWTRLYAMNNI

[2] = HEp-2 cell cytotoxicity, dose response, cytotoxicity control for RSV inhibitor project, HTS (AID 2410); assay type: functional; conditions: human respiratory syncytial virus
Protein RecA = target: T2, Protein RecA (Mycobacterium tuberculosis, UniProt P9WHJ3); test: Fluorescence Cell-Free Homogeneous Dose Retest to Identify Inhibitors of RecA-Intein Splicing Activity. [Related pubchem assays (depositor defined):AID2097, AID2223, AID489010, AID492950]; assay type: functional
T2 sequence (P9WHJ3 whole entry): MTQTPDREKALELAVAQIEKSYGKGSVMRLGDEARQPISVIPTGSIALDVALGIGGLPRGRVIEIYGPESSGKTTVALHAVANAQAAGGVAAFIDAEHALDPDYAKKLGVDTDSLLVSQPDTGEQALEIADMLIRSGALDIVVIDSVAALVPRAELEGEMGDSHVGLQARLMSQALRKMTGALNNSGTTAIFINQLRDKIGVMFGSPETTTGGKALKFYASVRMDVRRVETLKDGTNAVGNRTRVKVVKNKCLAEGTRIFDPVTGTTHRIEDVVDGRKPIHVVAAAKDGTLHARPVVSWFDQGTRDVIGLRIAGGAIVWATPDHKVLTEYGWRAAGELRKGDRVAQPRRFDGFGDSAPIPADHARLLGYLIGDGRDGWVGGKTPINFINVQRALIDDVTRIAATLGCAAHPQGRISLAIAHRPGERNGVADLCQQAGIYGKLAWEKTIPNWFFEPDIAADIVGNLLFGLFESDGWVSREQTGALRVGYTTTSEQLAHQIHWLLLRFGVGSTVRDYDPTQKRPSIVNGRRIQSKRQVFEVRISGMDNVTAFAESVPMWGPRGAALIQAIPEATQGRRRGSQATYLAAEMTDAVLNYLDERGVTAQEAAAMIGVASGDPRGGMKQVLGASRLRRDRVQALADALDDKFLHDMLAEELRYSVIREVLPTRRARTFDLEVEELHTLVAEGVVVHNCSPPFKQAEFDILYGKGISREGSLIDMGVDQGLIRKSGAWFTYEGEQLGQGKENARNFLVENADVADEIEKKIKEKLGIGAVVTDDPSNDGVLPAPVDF

[3] = target: T3, Replicative DNA helicase DnaB (Mycobacterium tuberculosis, UniProt P9WMR3); test: DnaB intein splicing inhibitors, dose response, biochemical, cell-free fluorescence (AID 449749); assay type: functional
T3 sequence (P9WMR3 whole entry): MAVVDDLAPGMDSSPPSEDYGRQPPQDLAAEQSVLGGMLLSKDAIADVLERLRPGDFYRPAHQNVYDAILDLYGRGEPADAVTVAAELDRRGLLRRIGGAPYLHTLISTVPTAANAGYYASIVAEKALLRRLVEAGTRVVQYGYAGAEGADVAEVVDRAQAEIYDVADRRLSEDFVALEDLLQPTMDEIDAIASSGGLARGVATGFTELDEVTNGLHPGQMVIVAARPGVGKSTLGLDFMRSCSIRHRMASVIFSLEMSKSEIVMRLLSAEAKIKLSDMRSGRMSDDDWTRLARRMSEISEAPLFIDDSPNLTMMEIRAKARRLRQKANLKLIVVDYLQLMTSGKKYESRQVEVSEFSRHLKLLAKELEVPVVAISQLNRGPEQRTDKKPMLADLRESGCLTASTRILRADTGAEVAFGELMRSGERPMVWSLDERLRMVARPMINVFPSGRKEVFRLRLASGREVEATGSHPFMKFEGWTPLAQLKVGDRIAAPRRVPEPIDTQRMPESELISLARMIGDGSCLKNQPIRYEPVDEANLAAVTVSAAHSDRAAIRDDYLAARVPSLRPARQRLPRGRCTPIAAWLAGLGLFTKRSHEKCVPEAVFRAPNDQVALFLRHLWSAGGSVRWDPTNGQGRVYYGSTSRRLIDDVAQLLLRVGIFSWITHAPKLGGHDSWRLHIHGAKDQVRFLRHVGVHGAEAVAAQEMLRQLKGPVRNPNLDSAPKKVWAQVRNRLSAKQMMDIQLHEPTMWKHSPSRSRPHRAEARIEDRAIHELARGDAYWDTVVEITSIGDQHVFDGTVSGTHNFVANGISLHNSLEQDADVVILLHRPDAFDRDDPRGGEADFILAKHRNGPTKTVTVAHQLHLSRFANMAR

[4] = target: T4, Lysosomal acid glucosylceramidase (Homo sapiens, UniProt P04062); test: Dose response cell-based high throughput screening assay to identify enhancers of beta-glucosidase activity. [Related pubchem assays: 784 ]; assay type: functional
T4 sequence (P04062 whole entry): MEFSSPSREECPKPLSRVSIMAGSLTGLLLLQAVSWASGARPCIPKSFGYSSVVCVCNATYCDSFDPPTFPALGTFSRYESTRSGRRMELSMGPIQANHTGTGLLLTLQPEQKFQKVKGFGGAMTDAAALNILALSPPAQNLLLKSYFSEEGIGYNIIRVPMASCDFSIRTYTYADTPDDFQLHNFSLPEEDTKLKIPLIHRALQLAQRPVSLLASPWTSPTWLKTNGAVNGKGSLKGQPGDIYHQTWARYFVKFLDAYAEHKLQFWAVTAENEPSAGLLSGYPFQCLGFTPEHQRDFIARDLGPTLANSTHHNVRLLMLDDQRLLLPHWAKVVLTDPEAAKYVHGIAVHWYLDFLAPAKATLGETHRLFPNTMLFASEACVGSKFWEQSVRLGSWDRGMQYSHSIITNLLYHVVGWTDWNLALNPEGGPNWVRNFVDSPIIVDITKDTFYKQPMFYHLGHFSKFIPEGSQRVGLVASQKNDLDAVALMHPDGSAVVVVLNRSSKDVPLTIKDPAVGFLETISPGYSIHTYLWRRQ

Cytochrome P450 3A4 = Cytochrome P450 3A4 (Homo sapiens, UniProt P08684); conditions: Potency;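 further: confirmatory qHTS run detecting inhibitors and substrates of CYP3A4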
Cytochrome P450 3A4, sequence (P08684 whole entry): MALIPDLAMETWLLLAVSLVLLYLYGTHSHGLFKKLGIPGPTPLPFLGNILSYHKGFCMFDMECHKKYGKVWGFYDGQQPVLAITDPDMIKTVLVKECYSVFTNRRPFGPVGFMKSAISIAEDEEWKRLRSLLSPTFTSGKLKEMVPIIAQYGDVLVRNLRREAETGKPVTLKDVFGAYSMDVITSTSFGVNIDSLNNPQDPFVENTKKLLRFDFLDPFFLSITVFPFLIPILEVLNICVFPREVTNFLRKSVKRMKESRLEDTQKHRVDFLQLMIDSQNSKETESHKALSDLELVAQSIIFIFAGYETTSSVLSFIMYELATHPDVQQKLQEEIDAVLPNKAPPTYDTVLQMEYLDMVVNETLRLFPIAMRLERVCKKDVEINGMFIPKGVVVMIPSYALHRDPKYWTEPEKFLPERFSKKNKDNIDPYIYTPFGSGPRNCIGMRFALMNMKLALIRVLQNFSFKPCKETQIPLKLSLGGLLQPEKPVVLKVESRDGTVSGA

[5] = target: T5, Heat shock factor protein 1 (Mus musculus, UniProt P38532); test: HSF1 potentiators in luciferase reporter cells, confirmation, cell-based, NIH3T3, luminescence, dose retest (AID 435004); assay type: functional;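 further: stress induced by proteasome inhibitor MG132 added 30 min after compound; luciferase reporter driven by HSF1 response element in NIH3T3 cells; actives raise luminescence as potentiators of the MG132 stress response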
T5 sequence (P38532 whole entry): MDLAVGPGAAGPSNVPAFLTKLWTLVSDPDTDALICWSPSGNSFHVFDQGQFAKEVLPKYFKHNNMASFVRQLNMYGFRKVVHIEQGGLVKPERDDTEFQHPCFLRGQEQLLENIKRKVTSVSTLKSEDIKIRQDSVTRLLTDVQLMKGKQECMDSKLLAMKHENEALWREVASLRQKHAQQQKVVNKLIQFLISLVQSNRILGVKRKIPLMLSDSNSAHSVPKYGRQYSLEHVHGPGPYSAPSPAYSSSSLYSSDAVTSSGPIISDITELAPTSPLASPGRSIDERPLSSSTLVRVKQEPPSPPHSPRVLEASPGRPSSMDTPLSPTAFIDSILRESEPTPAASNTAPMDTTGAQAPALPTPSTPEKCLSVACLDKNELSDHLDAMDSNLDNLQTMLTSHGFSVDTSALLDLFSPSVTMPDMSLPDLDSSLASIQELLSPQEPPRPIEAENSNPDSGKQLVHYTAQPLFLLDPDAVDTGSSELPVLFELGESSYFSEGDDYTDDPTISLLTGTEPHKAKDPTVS

Trypsin = Trypsin (Sus scrofa, UniProt P00761); test: porcine trypsin inhibitors, dose response, selectivity assay for Rce1 protease inhibitor project, biochemical, quenched peptide fluorescence, cherry-pick (AID 488789)
Trypsin, sequence (P00761 whole entry): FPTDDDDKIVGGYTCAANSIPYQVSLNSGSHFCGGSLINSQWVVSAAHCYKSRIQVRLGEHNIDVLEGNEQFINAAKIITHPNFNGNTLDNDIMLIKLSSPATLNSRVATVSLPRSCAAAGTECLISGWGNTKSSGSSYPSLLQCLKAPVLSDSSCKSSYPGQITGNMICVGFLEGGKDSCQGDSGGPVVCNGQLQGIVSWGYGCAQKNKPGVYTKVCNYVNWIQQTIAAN

SUMO-activating enzyme = SUMO-activating enzyme (Homo sapiens, UniProt Q9UBT2); test: inhibitors of in vitro SUMOylation cascade, primary screen, biochemical, HTRF, uHTS (AID 2006); assay type: protein-complex assay
SUMO-activating enzyme, sequence (Q9UBE0 whole entry): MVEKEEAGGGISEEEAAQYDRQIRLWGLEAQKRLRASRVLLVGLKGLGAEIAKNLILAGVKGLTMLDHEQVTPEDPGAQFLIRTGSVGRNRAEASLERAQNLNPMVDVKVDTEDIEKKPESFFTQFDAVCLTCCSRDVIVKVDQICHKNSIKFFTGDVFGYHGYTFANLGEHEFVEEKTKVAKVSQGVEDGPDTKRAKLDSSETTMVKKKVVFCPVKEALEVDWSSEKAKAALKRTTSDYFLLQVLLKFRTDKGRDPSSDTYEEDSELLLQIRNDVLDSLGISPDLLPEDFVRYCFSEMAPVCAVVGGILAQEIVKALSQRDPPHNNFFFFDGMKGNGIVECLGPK
SUMO-activating enzyme, sequence (Q9UBT2 whole entry): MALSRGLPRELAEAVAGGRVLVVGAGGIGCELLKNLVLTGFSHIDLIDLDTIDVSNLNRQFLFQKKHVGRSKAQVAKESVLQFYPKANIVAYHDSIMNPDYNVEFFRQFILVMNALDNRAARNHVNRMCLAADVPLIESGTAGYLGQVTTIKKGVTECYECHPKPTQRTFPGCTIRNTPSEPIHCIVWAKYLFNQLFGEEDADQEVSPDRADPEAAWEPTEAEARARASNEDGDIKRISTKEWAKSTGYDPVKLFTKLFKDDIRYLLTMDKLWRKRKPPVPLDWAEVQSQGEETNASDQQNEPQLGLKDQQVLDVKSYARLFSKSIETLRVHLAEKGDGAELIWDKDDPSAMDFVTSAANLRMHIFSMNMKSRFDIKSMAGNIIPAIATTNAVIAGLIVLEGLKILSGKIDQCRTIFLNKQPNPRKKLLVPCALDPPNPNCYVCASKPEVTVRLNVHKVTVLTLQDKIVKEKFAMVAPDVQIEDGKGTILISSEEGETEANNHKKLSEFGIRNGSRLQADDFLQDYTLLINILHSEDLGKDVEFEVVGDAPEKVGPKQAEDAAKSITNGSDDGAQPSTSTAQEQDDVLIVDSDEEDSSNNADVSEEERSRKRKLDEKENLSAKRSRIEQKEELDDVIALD

Cytochrome P450 2C19 = Cytochrome P450 2C19 (Homo sapiens, UniProt P33261); test: Cytochrome panel assay with activity outcomes. Panel member name: p450-cyp2c19 Compounds with AC50 equal or less than 10 uM are considered active; assay type: functional
Cytochrome P450 2C19, sequence (P33261 whole entry): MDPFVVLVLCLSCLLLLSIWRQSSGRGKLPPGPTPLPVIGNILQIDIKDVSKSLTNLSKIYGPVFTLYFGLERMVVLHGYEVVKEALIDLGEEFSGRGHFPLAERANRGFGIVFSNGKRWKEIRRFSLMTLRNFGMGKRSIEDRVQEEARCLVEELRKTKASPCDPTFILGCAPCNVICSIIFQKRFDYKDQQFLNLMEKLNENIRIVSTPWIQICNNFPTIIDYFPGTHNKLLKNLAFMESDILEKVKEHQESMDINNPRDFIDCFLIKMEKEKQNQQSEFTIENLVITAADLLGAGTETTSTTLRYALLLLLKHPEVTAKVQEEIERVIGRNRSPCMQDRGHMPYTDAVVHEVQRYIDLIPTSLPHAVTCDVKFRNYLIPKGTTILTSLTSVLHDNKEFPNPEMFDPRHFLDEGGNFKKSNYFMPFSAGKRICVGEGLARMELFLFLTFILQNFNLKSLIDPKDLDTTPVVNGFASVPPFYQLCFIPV

Vero [6] = test: cells; assay type: functional, cell-based; conditions: Chlorocebus sabaeus
Vero [7] = test: cells; assay type: functional; conditions: Chlorocebus sabaeus
[8] = target: T6, Calpain-2 catalytic subunit (Sus scrofa, UniProt P43367); test: pig calpain II inhibitor potency, dose response, biochemical, fluorogenic peptide substrate (AID 1420); assay type: functional
T6 sequence (P43367 whole entry): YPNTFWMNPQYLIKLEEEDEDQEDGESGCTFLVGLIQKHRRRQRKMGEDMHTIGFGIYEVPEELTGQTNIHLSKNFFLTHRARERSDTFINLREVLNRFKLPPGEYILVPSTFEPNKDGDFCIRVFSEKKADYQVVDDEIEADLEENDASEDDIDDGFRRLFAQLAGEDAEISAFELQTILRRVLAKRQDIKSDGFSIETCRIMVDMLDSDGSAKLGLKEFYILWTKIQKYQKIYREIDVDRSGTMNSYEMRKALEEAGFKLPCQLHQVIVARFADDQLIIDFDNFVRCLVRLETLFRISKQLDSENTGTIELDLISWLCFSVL

Nonstructural protein 1 = Nonstructural protein 1 (Influenza A virus, UniProt Q194T2); assay type: functional, Influenza A virus (A/California/07/2009(H1N1))
Nonstructural protein 1, sequence (Q194T2 whole entry): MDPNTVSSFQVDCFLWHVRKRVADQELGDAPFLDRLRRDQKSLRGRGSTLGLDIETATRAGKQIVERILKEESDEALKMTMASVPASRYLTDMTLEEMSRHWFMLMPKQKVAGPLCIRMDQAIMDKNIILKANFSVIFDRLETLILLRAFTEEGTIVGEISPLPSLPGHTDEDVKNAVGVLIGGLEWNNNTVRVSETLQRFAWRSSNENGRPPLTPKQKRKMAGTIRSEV

[9] = target: T7, DNA repair protein RAD52 homolog (Homo sapiens, UniProt P43351); assay type: functional, biochemical
T7 sequence (P43351 whole entry): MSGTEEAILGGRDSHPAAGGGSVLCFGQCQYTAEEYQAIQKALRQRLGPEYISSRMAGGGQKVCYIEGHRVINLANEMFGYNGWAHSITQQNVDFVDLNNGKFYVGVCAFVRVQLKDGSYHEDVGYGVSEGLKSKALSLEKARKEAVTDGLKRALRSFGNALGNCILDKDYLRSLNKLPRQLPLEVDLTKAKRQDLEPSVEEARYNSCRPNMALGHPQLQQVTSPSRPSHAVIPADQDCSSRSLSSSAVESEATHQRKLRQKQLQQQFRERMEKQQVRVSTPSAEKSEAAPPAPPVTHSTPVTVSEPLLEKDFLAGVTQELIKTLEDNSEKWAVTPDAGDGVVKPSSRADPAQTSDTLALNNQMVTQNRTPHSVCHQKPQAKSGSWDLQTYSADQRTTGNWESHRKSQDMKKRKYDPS

Cc1ccc(-c2csc(N3CCN(c4cc5c(cc4Cl)nc(C)n5CCN4CCCCC4)CC3)n2)cc1
IC50 [1]: > 20 µM (inactive)

CNC(=O)/C(C#N)=C/c1c(N(Cc2ccccc2)Cc2ccccc2)nc2c(C)cccn2c1=O
CC50 [2]: 10.1 µM (active)
EC50 (Protein RecA): 104 µM (active)
IC50 (cells): 11.3 µM (active)
AC50 [3]: > 120 µM (inactive)

OC(COCC1CC=CCC1)Cn1cnc2ccccc21 (stereo not drawn)
EC50 [4]: > 50 µM (not active)

FC(F)(F)c1ccc(C2[C@H]3CN(Cc4ccc(-c5ccccc5)cc4)[C@H](c4ccccc4)C34CC2(c2ccccc2)C4)cc1 (stereo partly drawn)
AC50 (Cytochrome P450 3A4): 25.1 µM (inconclusive)

Cc1ccc(N(CCCCN2C(=O)c3ccccc3C2=O)C(=O)c2cccc([N+](=O)[O-])c2)cc1
CC50 [2]: > 50 µM (active)
IC50 (cells): 15.8 µM (active)
EC50 [5]: 33.2 µM (active)

O=C1C(Cc2c[nH]c3ccccc23)NC(=S)N1Cc1ccccc1 (stereo not drawn)
AC50 (Trypsin): 14.3 µM (active)

COC(=O)N1C2(C=CC1(C)C(=O)NCc1ccc(N(C)C)cc1)CCCCC2 (stereo not drawn)
AC50 (Cytochrome P450 3A4): 0.501 µM (inconclusive)

CCc1ccc(-c2cc(C(=O)N/N=C/c3ccccn3)[nH]n2)cc1
IC50 [1]: > 20 µM (inactive)

COC(=O)C1=C(C)N(Cc2ccccc2)[C@]23O[C@](C(=O)OC)(C(=O)N2C1c1ccccc1)C(C(=O)OC)=C3C(=O)OC (stereo partly drawn)
AC50 (Cytochrome P450 3A4): 3.16 µM (inconclusive)

Cc1ccc2[nH]c3c(c2c1)CN(C(=O)CN1CCCc2ccccc21)CC3
IC50 (SUMO-activating enzyme): 69.6 µM (active)

O=C(NCCCN1CCCCC1)C1CCN(c2ncnc3c2nc2n3CCCCC2)CC1
IC50 [1]: > 20 µM (inactive)

COCCCn1c(SCC(=O)OC2CCCCC2)nnc1-c1ccco1
EC50 [4]: > 50 µM (not active)

Cc1nonc1NC(=O)OCCN1CCOC1=O
AC50 (Cytochrome P450 2C19): inconclusive
EC50 [4]: > 50 µM (not active)

CCCc1c(NC(=O)Nc2ccc(F)cc2)cnn1-c1ccccc1
CC50 [2]: 21.3 µM (active)
IC50 (Vero [6]): 2.12 µM (active)
IC50 (cells): 4.51 µM (active)
CC50 (Vero [7]): > 25 µM (active)

Nc1nonc1-c1noc(CCCCCN2C(=O)c3ccccc3C2=O)n1
IC50 [8]: 2.74 µM (not active)
EC50 [4]: > 10 µM (not active)

CN1CCN(C2CCN(Cc3ccc(O)c4ncccc34)CC2)CC1
IC50 [1]: > 20 µM (inactive)
IC50 (Nonstructural protein 1): 5.84 µM (active)
AC50 [9]: 1.11 µM (active)

— ChEMBL document CHEMBL1201862, “PubChem BioAssay data set” (2004)
